Experimental data as given in patent publication US20260022098A1, “BULLEYACONITINE A DERIVATIVE WITH ANALGESIC ACTIVITY, AND PREPARATION METHOD AND APPLICATION THEREOF” (priority 2023, published 2026).

How the values were obtained:
Kunming mice [1] = assay: Analgesic activity by acetic acid-induced writhing method (writhing inhibition rate, ED50); assay type: in vivo; conditions: Mus musculus, sc, read-out: Analgesia rate (%) ± SEM
Description: (§1) The experimental animals were Kunming mice (male:female=1:1), weighed 22+2 g, which were provided by Chengdu dossy experimental animals Co., ltd., China. The mice were kept in the animal room of the School of Life Science and Engineering, Southwest Jiaotong University, where the animal room was set at a temperature of 23±2° C., a humidity of […] and a photoperiod of 16:8 h (L:D). Before the experiment, the mice were freely fed for 2-3 days with water and feed to adapt to the new environment. Then, the mice were treated by water and food fasting for 12 h. 10 animals were allocated to each group to ensure that there are at least 6 sets of valid data in each group. The animal experiments were carried out in strict accordance with the national regulations on the management of experimental animals.
(§2) The compounds prepared in the examples provided herein (test sample set) and bulleyaconitine A (positive control set) were all dissolved with 0.1 mol/L HCl according to a molar ratio of 1:1, and then diluted with physiological saline to a concentration to be determined. Blank control was physiological saline containing 0.1 mol/L HCl. The animals in the control groups were subjected to the same treatment as those in experimental groups except that samples to be test were replaced with physiological saline.
(1) Determination of Analgesic Activity Through an Acetic Acid-Induced Writhing Method
10 mice were randomly selected, male:female=1:1, were placed in independent cages. Each mouse was injected subcutaneously with the sample solution mentioned above at a dose of 0.1 mL/10 g body weight. After 15 min, a 0.7% acetic acid solution was intraperitoneally injected. A number of writhing reactions in each mouse within 15 minutes was recorded. The group that the mice were injected with physiological saline subcutaneously was the blank group; the group that the mice were injected with the sample to be tested was the experimental group; and the group that the mice were injected with bulleyaconitine A was the positive group. The analgesic activity was represented by a percentage of the reduced number of writhing compared to the blank group (writhing inhibition rate), which were specifically as follows: writhing inhibition rate (analgesic activity)=(average number of writhing times in the blank group-average number of writhing times in the experimental group)/average number of writhing times in the blank group×100%.
Median Effective Dose (ED50) Determination
The sample to be tested was dissolved with 0.1 mol/L HCl according to the amount of the substance ratio of 1:1, and diluted with physiological saline according to the proportional series to obtain at least 5 groups with different dose concentrations. The writhing inhibition rate of each dose group was tested according to the acetic acid-induced writhing method mentioned above. The obtained dose-writhing inhibition data was entered into the statistical product and service solutions (SPSS) software (version 17.2), and the ED50 of the sample to be tested was calculated through the Probit regression method.

Kunming mice [2] = assay: Acute toxicity / median lethal dose (LD50) determination, subcutaneous injection; assay type: in vivo; parameters: key to Acute toxicity: if death occurred, (+) represented as positive; if no death occurred, (−) represented as negative; conditions: mice administered 20 mg/kg subcutaneously, presence of death within 24 h
Description: as §1, §2
(2) Median Lethal Dose (LD50) Determination
The sample to be tested was dissolved with 0.1 mol/L HCl according to the amount of the substance ratio of 1:1, and diluted with physiological saline according to the required concentration. 10 mice in each group were randomly selected, half of which were male and half of which were female, and were placed in independent cages. Each mouse was injected subcutaneously with different sample solutions to be tested according to a dose of 0.1 mL/10 g body weight. In the preliminary toxicity experiment, the measured concentration was 20 mg/kg, and then based on the survival rate of the experimental animals in the preliminary experiment, the sample to be tested was set to at least 5 groups with different concentration dose according to the proportional series. The survival rate of mice within 24 h was recorded. The obtained dose-survival rate data was input into the SPSS software (version 17.2), and the LD50 of the sample was calculated according to the Probit regression method.

SMILES | inhibition in vivo at 0.05 mg/kg (Kunming mice [1]) [%] | Acute toxicity (Kunming mice [2])
CCN1C[C@]2(COC)CC[C@H](OC)[C@@]34C5C[C@]6(O)[C@@H](OC)C[C@@](OC)(C5[C@H]6OC(=O)c5ccc(OC)cc5)C([C@H](OC)C23)[C@@H]14 (stereo partly drawn) [Compound 1] | 25.5 ± 2.9 | +
CCN1C[C@]2(COC)CC[C@H](OC)[C@@]34C5C[C@]6(OC(=O)c7ccccc7)[C@@H](OC)C[C@@](OC(C)=O)(C5[C@H]6OC(=O)c5ccc(OC)cc5)C([C@H](OC)C23)[C@@H]14 (stereo partly drawn) [Compound 54] | 0 | −
CCO[C@]12C[C@H](OC)[C@@]3(OC(=O)c4cccs4)CC(C1[C@H]3OC(=O)c1ccc(OC)cc1)[C@]13C4[C@@H](OC)C2[C@H]1N(CC)C[C@]4(COC)CC[C@@H]3OC (stereo partly drawn) [Compound 19] | 7.13 ± 2.8 | −
CCOc1ccc(C(=O)O[C@]23CC4C([C@H]2OC(=O)c2ccc(OC)cc2)[C@](OC(C)=O)(C[C@@H]3OC)C2[C@H](OC)C3[C@@]5(COC)CC[C@H](OC)[C@@]43[C@@H]2N(CC)C5)cc1 (stereo partly drawn) [Compound 37] | 21.2 ± 1.7 | −
CCO[C@]12C[C@H](OC)[C@@]3(OC(=O)c4ccc(CC)cc4)CC(C1[C@H]3OC(=O)c1ccc(CC)cc1)[C@]13C4[C@@H](OC)C2[C@H]1N(CC)C[C@]4(COC)CC[C@@H]3OC (stereo partly drawn) [Compound 63] | 0 | −
C/C=C/C(=O)O[C@]12CC3C([C@H]1OC(=O)c1ccc(OC)cc1)[C@](OC(C)=O)(C[C@@H]2OC)C1[C@H](OC)C2[C@@]4(COC)CC[C@H](OC)[C@@]32[C@@H]1N(CC)C4 (stereo partly drawn) [Compound 87] | 17.3 ± 3.1 | −
CCO[C@]12C[C@H](OC)[C@@]3(OC(=O)c4ccc(C(F)(F)F)cc4)CC(C1[C@H]3OC(=O)c1ccc(OC)cc1)[C@]13C4[C@@H](OC)C2[C@H]1N(CC)C[C@]4(COC)CC[C@@H]3OC (stereo partly drawn) [Compound 47] | 33.8 ± 2.2 | −
CCO[C@]12C[C@H](OC)[C@@]3(OC(=O)c4ccc(OC(F)(F)F)cc4)CC(C1[C@H]3OC(=O)c1ccc(OC(F)(F)F)cc1)[C@]13C4[C@@H](OC)C2[C@H]1N(CC)C[C@]4(COC)CC[C@@H]3OC (stereo partly drawn) [Compound 94] | 0 | −
CCO[C@]12C[C@H](OC)[C@@]3(OC(=O)c4cc([N+](=O)[O-])cc([N+](=O)[O-])c4)CC(C1[C@H]3OC(=O)c1cc([N+](=O)[O-])cc([N+](=O)[O-])c1)[C@]13C4[C@@H](OC)C2[C@H]1N(CC)C[C@]4(COC)CC[C@@H]3OC (stereo partly drawn) [Compound 96] | 30.1 ± 1.3 | −
CCN1C[C@]2(COC)CC[C@H](OC)[C@@]34C5C[C@]6(OC(=O)c7ccc(C(F)(F)F)cc7)[C@@H](OC)C[C@@](OC(C)=O)(C5[C@H]6OC(=O)c5ccc(OC)cc5)C([C@H](OC)C23)[C@@H]14 (stereo partly drawn) [Compound 48] | 17.5 ± 3 | −
CCO[C@]12C[C@H](OC)[C@@]3(OC(=O)c4cc(F)cc(F)c4)CC(C1[C@H]3OC(=O)c1cc(F)cc(F)c1)[C@]13C4[C@@H](OC)C2[C@H]1N(CC)C[C@]4(COC)CC[C@@H]3OC (stereo partly drawn) [Compound 74] | 23.9 ± 2.8 | −
C/C=C/C(=O)O[C@@H]1C2C3C[C@]1(OC(=O)/C=C/C)[C@@H](OC)C[C@]2(OCC)C1[C@H](OC)C2[C@@]4(COC)CC[C@H](OC)[C@@]32[C@@H]1N(CC)C4 (stereo partly drawn) [Compound 85] | 22.4 ± 3.3 | −
CCN1C[C@]2(COC)CC[C@H](OC)[C@@]34C5C[C@]6(OC(=O)C7CCCCC7)[C@@H](OC)C[C@@](OC(C)=O)(C5[C@H]6OC(=O)c5ccc(OC)cc5)C([C@H](OC)C23)[C@@H]14 (stereo partly drawn) [Compound 11] | 35.1 ± 1.2 | −
CCO[C@]12C[C@H](OC)[C@@]3(OC(=O)c4ccc(Cl)cc4)CC(C1[C@H]3OC(=O)c1ccc(Cl)cc1)[C@]13C4[C@@H](OC)C2[C@H]1N(CC)C[C@]4(COC)CC[C@@H]3OC (stereo partly drawn) [Compound 65] | 32.3 ± 1.7 | −
CCN1C[C@]2(COC)CC[C@H](OC)[C@@]34C5C[C@]6(OC(=O)C7CCCCC7)[C@@H](OC)C[C@@](OC)(C5[C@H]6OC(=O)C5CCCCC5)C([C@H](OC)C23)[C@@H]14 (stereo partly drawn) [Compound 34] | 37 ± 1.4 | −
CCN1C[C@]2(COC)CC[C@H](OC)[C@@]34C5C[C@]6(OC(=O)c7ccc(Cl)s7)[C@@H](OC)C[C@@](OC(C)=O)(C5[C@H]6OC(=O)c5ccc(OC)cc5)C([C@H](OC)C23)[C@@H]14 (stereo partly drawn) [Compound 22] | 6.27 ± 2.3 | −
CCO[C@]12C[C@H](OC)[C@@]3(OC(=O)c4ccc(Cl)s4)CC(C1[C@H]3OC(=O)c1ccc(OC)cc1)[C@]13C4[C@@H](OC)C2[C@H]1N(CC)C[C@]4(COC)CC[C@@H]3OC (stereo partly drawn) [Compound 20] | 0 | −
CCO[C@]12C[C@H](OC)[C@@]3(OC(=O)c4ccc(Cl)cc4Cl)CC(C1[C@H]3OC(=O)c1ccc(Cl)cc1Cl)[C@]13C4[C@@H](OC)C2[C@H]1N(CC)C[C@]4(COC)CC[C@@H]3OC (stereo partly drawn) [Compound 73] | 33.5 ± 2.7 | −
CCO[C@]12C[C@H](OC)[C@@]3(OC(C)=O)CC(C1[C@H]3OC(C)=O)[C@]13C4[C@@H](OC)C2[C@H]1N(CC)C[C@]4(COC)CC[C@@H]3OC (stereo partly drawn) [Compound 41] | 18.5 ± 2.1 | −
CCO[C@]12C[C@H](OC)[C@@]3(OC(=O)C4CC4)CC(C1[C@H]3OC(=O)C1CC1)[C@]13C4[C@@H](OC)C2[C@H]1N(CC)C[C@]4(COC)CC[C@@H]3OC (stereo partly drawn) [Compound 8] | 37.1 ± 1.2 | −
CCO[C@]12C[C@H](OC)[C@@]3(OC(=O)c4ccccc4)CC(C1[C@H]3OC(=O)c1ccc(OC)cc1)[C@]13C4[C@@H](OC)C2[C@H]1N(CC)C[C@]4(COC)CC[C@@H]3OC (stereo partly drawn) [Compound 53] | 0 | −
CCO[C@]12C[C@H](OC)[C@@]3(OC(=O)c4ccccc4OC)CC(C1[C@H]3OC(=O)c1ccccc1OC)[C@]13C4[C@@H](OC)C2[C@H]1N(CC)C[C@]4(COC)CC[C@@H]3OC (stereo partly drawn) [Compound 66] | 22.9 ± 2.4 | −
CCO[C@]12C[C@H](OC)[C@@]3(OC(=O)c4ccc(Br)cc4)CC(C1[C@H]3OC(=O)c1ccc(OC)cc1)[C@]13C4[C@@H](OC)C2[C@H]1N(CC)C[C@]4(COC)CC[C@@H]3OC (stereo partly drawn) [Compound 91] | 31.4 ± 1.5 | −
CCN1C[C@]2(COC)CC[C@H](OC)[C@@]34C5C[C@]6(OC(=O)c7ccco7)[C@@H](OC)C[C@@](OC)(C5[C@H]6OC(=O)c5ccc(OC)cc5)C([C@H](OC)C23)[C@@H]14 (stereo partly drawn) [Compound 33] | 30.2 ± 2.6 | −
CCO[C@]12C[C@H](OC)[C@@]3(OC(=O)Cc4cccs4)CC(C1[C@H]3OC(=O)Cc1cccs1)[C@]13C4[C@@H](OC)C2[C@H]1N(CC)C[C@]4(COC)CC[C@@H]3OC (stereo partly drawn) [Compound 93] | 10.5 ± 2.3 | −
CCOc1ccc(C(=O)O[C@@H]2C3C4C[C@]2(OC(=O)c2ccc(OCC)cc2)[C@@H](OC)C[C@]3(OCC)C2[C@H](OC)C3[C@@]5(COC)CC[C@H](OC)[C@@]43[C@@H]2N(CC)C5)cc1 (stereo partly drawn) [Compound 35] | 0 | −
CCO[C@]12C[C@H](OC)[C@@]3(OC(=O)c4cccc(Br)c4)CC(C1[C@H]3OC(=O)c1cccc(Br)c1)[C@]13C4[C@@H](OC)C2[C@H]1N(CC)C[C@]4(COC)CC[C@@H]3OC (stereo partly drawn) [Compound 70] | 5.83 ± 1.7 | −
